Data from patent US20250144067A1, “PERSONALIZED STARVATION THERAPY FOR CANCER” (Faeth Therapeutics, Inc., priority 2021, published 2025).
Where a name gives a salt, the structure may show the parent alone. Read-outs that look alike come from different tables or passages of the source.

Columns and labels:
[1] = tested on: NCI-H292 lung cancer cells; test: FDA drug screening, complete media vs cholesterol-free media with simvastatin (TABLE 2); format: cell-based, human
[2] = tested on: NCI-H292 lung cancer cells; test: FDA drug screening, complete media vs cholesterol-free media without statin (TABLE 1); format: cell-based, human
[3] = NCI-H292 cells, drug in cholesterol-free media with simvastatin 0.04 μM
[4] = NCI-H292 cells, drug in complete media
[5] = complete media vs cholesterol-free media + simvastatin (0.04 μM), >0 enhanced anti-cancer activity, about 0 neutral, <0 antagonist
[6] = Complete minus Cholesterol-free, greater than 0 enhanced anti-cancer activity, about 0 neutral, below 0 antagonists
[7] = NCI-H292 cells in cholesterol-free media without statin
[8] = NCI-H292 cells in complete media
[9] = NCI-H292 cells, FDA drug library screen, cholesterol-free media with simvastatin 0.04 μM
[10] = NCI-H292 cells, FDA drug library screen, complete media
[11] = NCI-H292 cells, cholesterol-free media without statin
[12] = complete vs cholesterol-free media, greater than 0 enhanced anti-cancer activity, about 0 neutral, below 0 antagonists
[13] = NCI-H292 cells, FDA library drug in cholesterol-free media with simvastatin 0.04 μM
[14] = NCI-H292 cells, FDA library drug in complete media
[15] = complete media vs cholesterol-free media + simvastatin (0.04 μM), […]
[16] = complete vs cholesterol-free media, […]
[17] = Complete minus Cholesterol-free, greater than 0 enhanced anti-cancer activity, about 0 neutral, below 0 antagonist
[18] = NCI-H292 cells, FDA drug library screen, cholesterol-free media without statin
[19] = NCI-H292 cells, cholesterol-free media with simvastatin 0.04 μM, FDA drug library screen (TABLE 2)
[20] = NCI-H292 cells, complete media, FDA drug library screen (TABLE 2)
[21] = complete media minus cholesterol-free media + simvastatin (0.04 μM), >0 enhanced anti-cancer activity, about 0 neutral, <0 antagonist
[22] = Complete minus Cholesterol-free, >0 enhanced anti-cancer activity, about 0 neutral, <0 antagonist
[23] = NCI-H292 cells, cholesterol-free media without statin, FDA drug library screen
[24] = NCI-H292 cells, complete media, FDA drug library screen
[25] = complete media minus cholesterol-free media + simvastatin, >0 enhanced anti-cancer activity, about 0 neutral, <0 antagonist
[26] = complete vs cholesterol-free media, >0 enhanced anti-cancer activity, about 0 neutral, <0 antagonist
[27] = NCI-H292 cells, cholesterol-free media with simvastatin 0.04 μM, cell growth value in FDA drug screen
[28] = NCI-H292 cells, complete media, cell growth value in FDA drug screen

CC(=O)/N=c1/sc(S(N)(=O)=O)nn1C [Methazolamide]
Cholesterol-free media + simvastatin (0.04 μM) [1, 3]: 1.441
Complete Media [1, 4]: 1.241
Difference [1, 5]: −0.20
Difference [2, 6]: −0.57
Cholesterol-free [2, 7]: 1.478
Complete [2, 8]: 0.9069

CCOc1ccc2nc(S(N)(=O)=O)sc2c1 [Ethoxzolamide]
Cholesterol-free media + simvastatin (0.04 μM) [1, 9]: 1.137
Complete Media [1, 10]: 1.016
Difference [1, 5]: −0.12
Cholesterol-free [2, 11]: 1.33
Complete ([2]; NCI-H292 cells, complete media): 0.9909
Difference [2, 12]: −0.34

O=C1CCC[C@@H]2[C@H]3CCCN4CCC[C@H](CN12)[C@@H]34 [Sophoridine]
Cholesterol-free media + simvastatin (0.04 μM) [1, 13]: 1.337
Complete Media [1, 14]: 1.063
Difference [1, 15]: −0.27
Cholesterol-free [2, 11]: 1.507
Complete ([2]; NCI-H292 cells, complete media): 1.042
Difference [2, 16]: −0.46

CCCc1nn(C)c2c(=O)[nH]c(-c3cc(S(=O)(=O)N4CCN(C)CC4)ccc3OCC)nc12 [Sildenafil]
Cholesterol-free media + simvastatin (0.04 μM) [1, 9]: 1.23
Complete Media [1, 10]: 1.131
Difference [1, 5]: −0.10
Difference [2, 6]: −0.63
Cholesterol-free [2, 7]: 1.66
Complete [2, 8]: 1.034

Clopidogrel (hydrogen sulfate)
Cholesterol-free media + simvastatin (0.04 μM) [1, 3]: 1.048
Complete Media [1, 4]: 0.8246
Difference [1, 5]: −0.22
Difference [2, 17]: −0.10
Cholesterol-free [2, 18]: 1.157
Complete [2, 10]: 1.053

CCOC(=O)c1cncn1[C@H](C)c1ccccc1 [Etomidate]
Cholesterol-free media + simvastatin (0.04 μM) [1, 9]: 0.9001
Complete Media [1, 10]: 1.134
Difference ([1]; complete media minus cholesterol-free media + simvastatin, […]): 0.23
Cholesterol-free [2, 11]: 1.122
Complete ([2]; NCI-H292 cells, complete media): 0.7993
Difference [2, 16]: −0.32

Nc1nc2[nH]cc(CCc3ccc(C(=O)N[C@@H](CCC(=O)O)C(=O)O)cc3)c2c(=O)[nH]1 [Pemetrexed]
Cholesterol-free media + simvastatin (0.04 μM) [1, 19]: 0.2196
Complete Media [1, 20]: 0.2004
Difference [1, 21]: −0.02
Difference [2, 22]: −0.01
Cholesterol-free [2, 23]: 0.1659
Complete [2, 24]: 0.1596

C[C@H](Cn1cnc2c(N)ncnc21)OCP(=O)(O)O [Tenofovir]
Cholesterol-free media + simvastatin (0.04 μM) [1, 9]: 0.8374
Complete Media [1, 10]: 1.066
Difference [1, 25]: 0.23
Difference [2, 6]: −0.62
Cholesterol-free [2, 7]: 1.637
Complete [2, 8]: 1.013

CCCSc1nc(N[C@@H]2C[C@H]2c2ccc(F)c(F)c2)c2nnn([C@@H]3C[C@H](OCCO)[C@@H](O)[C@H]3O)c2n1 [Ticagrelor]
Cholesterol-free media + simvastatin (0.04 μM) [1, 9]: 0.854
Complete Media [1, 10]: 1.275
Difference [1, 25]: 0.42
Difference [2, 6]: −0.72
Cholesterol-free [2, 7]: 1.589
Complete [2, 8]: 0.8706

Sertaconazole (nitrate)
Cholesterol-free media + simvastatin (0.04 μM) [1, 9]: 0.3702
Complete Media [1, 10]: 0.8436
Difference [1, 25]: 0.47
Cholesterol-free [2, 23]: 0.6893
Complete [2, 24]: 0.8595
Difference [2, 26]: 0.17

Tamoxifen (Citrate)
Cholesterol-free media + simvastatin (0.04 μM) [1]: 0.9205
Complete Media [1]: 0.7671
Difference [1]: −0.15
Cholesterol-free [2]: 0.4962
Complete [2]: 0.576
Difference [2]: 0.08

Goserelin (acetate)
Cholesterol-free media + simvastatin (0.04 μM) [1, 3]: 1.497
Complete Media [1, 4]: 1.249
Difference [1, 15]: −0.25
Difference ([2]; Complete minus Cholesterol-free, […]): −0.26
Cholesterol-free [2, 11]: 1.173
Complete ([2]; NCI-H292 cells, complete media): 0.9084

O=C(O)c1ccc(NC(=O)[C@H](Cc2ccc(O)cc2)NC(=O)c2ccccc2)cc1 [Bentiromide]
Cholesterol-free media + simvastatin (0.04 μM) [1, 3]: 0.9161
Complete Media [1, 4]: 0.7117
Difference [1, 5]: −0.20
Difference [2, 22]: −0.23
Cholesterol-free [2, 11]: 1.105
Complete ([2]; NCI-H292 cells, complete media): 0.8729

COc1ccc2[nH]cc(CCNC(C)=O)c2c1 [Melatonin]
Cholesterol-free media + simvastatin (0.04 μM) [1, 9]: 1.501
Complete Media [1, 10]: 1.753
Difference [1, 25]: 0.25
Difference [2, 22]: 0.05
Cholesterol-free [2, 23]: 0.9489
Complete [2, 24]: 0.9969

CCCOc1ccc(C(=O)OCCN(CC)CC)cc1N [Proparacaine (Hydrochloride)]
Cholesterol-free media + simvastatin (0.04 μM) [1, 9]: 0.544
Complete Media [1, 10]: 1.021
Difference [1, 25]: 0.48
Cholesterol-free [2, 11]: 1.255
Complete ([2]; NCI-H292 cells, complete media): 0.8769
Difference [2, 12]: −0.38

Amlodipine (maleate)
Cholesterol-free media + simvastatin (0.04 μM) [1]: 1.087
Complete Media [1]: 0.7885
Difference [1]: −0.30
Cholesterol-free [2]: 1.127
Complete [2]: 0.9069
Difference [2]: −0.22

C=CC1=C(C(=O)O)N2C(=O)[C@@H](NC(=O)/C(=N\OCC(=O)O)c3csc(N)n3)[C@H]2SC1 [Cefixime]
Cholesterol-free media + simvastatin (0.04 μM) [1, 3]: 1.663
Complete Media [1, 4]: 1.418
Difference [1, 5]: −0.24
Difference [2, 22]: 0.05
Cholesterol-free [2, 23]: 1.137
Complete [2, 24]: 1.188

CC12CCC(CC1=O)C2(C)C (stereo not drawn) [(+)-Camphor]
Cholesterol-free media + simvastatin (0.04 μM) [1, 27]: 0.9198
Complete Media [1, 28]: 1.05
Difference [1, 25]: 0.13
Cholesterol-free [2, 23]: 0.9458
Complete [2, 24]: 1.19
Difference [2, 26]: 0.24

C[C@H](CCC(=O)O)[C@H]1CC[C@H]2[C@@H]3C[C@H](O)[C@@H]4C[C@H](O)CC[C@]4(C)[C@H]3CC[C@]12C [Hyodeoxycholic acid]
Cholesterol-free media + simvastatin (0.04 μM) [1, 9]: 0.7549
Complete Media [1, 10]: 0.9966
Difference [1, 25]: 0.24
Cholesterol-free [2, 11]: 1.462
Complete ([2]; NCI-H292 cells, complete media): 1.016
Difference [2, 12]: −0.45

CCc1ccc(CCOc2ccc(CC3SC(=O)NC3=O)cc2)nc1 (centres unmarked) [Pioglitazone]
Cholesterol-free media + simvastatin (0.04 μM) [1, 13]: 2.095
Complete Media [1, 14]: 1.521
Difference [1, 5]: −0.57
Cholesterol-free [2, 23]: 0.8939
Difference [2, 26]: 0.27

CC1(C)S[C@@H]2[C@H](/N=C/N3CCCCCC3)C(=O)N2[C@H]1C(=O)O [Mecillinam]
Cholesterol-free media + simvastatin (0.04 μM) [1, 9]: 1.033
Complete Media [1, 10]: 1.74
Difference [1, 25]: 0.71
Difference [2, 17]: −0.15
Cholesterol-free [2, 18]: 0.9011
Complete [2, 10]: 0.7528

Cn1nnc(-c2ccc(-c3ccc(N4C[C@H](CO)OC4=O)cc3F)cn2)n1 [Tedizolid]
Cholesterol-free media + simvastatin (0.04 μM) [1, 27]: 1.119
Complete Media [1, 28]: 1.184
Difference [1, 25]: 0.07
Difference [2, 17]: −0.10
Cholesterol-free [2, 18]: 0.9116
Complete [2, 10]: 0.8073

C[N+]12CCC(CC1)C(OC(=O)C(O)(c1ccccc1)c1ccccc1)C2.[Br-] (centres unmarked) [Clidinium (bromide)]
Cholesterol-free media + simvastatin (0.04 μM) [1]: 1.456
Complete Media [1]: 1.482
Difference [1]: 0.03
Cholesterol-free [2]: 1.17
Complete [2]: 1.604
Difference [2]: 0.43

CCOC(=O)[C@H](CCc1ccccc1)N[C@H]1CS[C@H](c2cccs2)CN(CC(=O)O)C1=O [Temocapril (hydrochloride)]
Cholesterol-free media + simvastatin (0.04 μM) [1, 19]: 1.423
Complete Media [1, 20]: 1.436
Difference [1, 21]: 0.01
Difference [2, 22]: 0.00
Cholesterol-free [2, 23]: 0.6068
Complete [2, 24]: 0.6079

O=c1cccc2n1C[C@@H]1CNC[C@H]2C1 [Cytisinicline]
Cholesterol-free media + simvastatin (0.04 μM) [1]: 1.003
Complete Media [1]: 1.015
Difference [1]: 0.01
Cholesterol-free [2]: 1.156
Complete [2]: 0.9676
Difference [2]: −0.19

Cl.Cl.NCCc1c[nH]cn1 [Histamine (dihydrochloride)]
Cholesterol-free media + simvastatin (0.04 μM) [1]: 0.9209
Complete Media [1]: 0.9238
Difference [1]: 0.00
Cholesterol-free [2]: 1.708
Complete [2]: 1.081
Difference [2]: −0.63

CO[C@H]1/C=C/O[C@@]2(C)Oc3c(C)c(O)c4c(O)c(c(/C=N/N5CCN(C6CCCC6)CC5)c(O)c4c3C2=O)NC(=O)/C(C)=C\C=C\[C@H](C)[C@H](O)[C@@H](C)[C@@H](O)[C@@H](C)[C@H](OC(C)=O)[C@@H]1C [Rifapentine]
Cholesterol-free media + simvastatin (0.04 μM) [1, 9]: 1.582
Complete Media [1, 10]: 1.938
Difference [1, 25]: 0.36
Difference [2, 22]: −0.06
Cholesterol-free [2, 23]: 1.056
Complete [2, 24]: 0.9967

O=C1Nc2ccccc2/C1=C1/Nc2ccccc2C1=O [Indirubin]
Cholesterol-free media + simvastatin (0.04 μM) [1, 13]: 0.8483
Complete Media [1, 14]: 0.5782
Difference [1, 5]: −0.27
Difference [2, 22]: −0.04
Cholesterol-free [2, 23]: 0.7727
Complete [2, 24]: 0.7337

CC(C)OC(=O)CNc1cccc(CN(Cc2ccc(-n3cccn3)cc2)S(=O)(=O)c2cccnc2)n1 [Omidenepag isopropyl]
Cholesterol-free media + simvastatin (0.04 μM) [1, 27]: 1.236
Complete Media [1, 28]: 1.286
Difference [1, 25]: 0.05
Difference [2, 6]: −0.75
Cholesterol-free [2, 7]: 1.563
Complete [2, 8]: 0.8153
